# Tests used:
# FAP [1] = target: FAP (Mus musculus (Mouse), UniProt P97321); experiment: FAP plasma inhibition assay, mouse plasma; type: biochemical; details: mouse plasma diluted 1:67, Ala-Pro-AMC 75 μM
# Experimental: This assay was adapted from the method described in Example 237 for detection of FAP target engagement enzyme activity in plasma. Plasma (anticoagulant K2EDTA) was used as the enzyme source: Human plasma (Pooled from AZ Biobank), Mouse plasma (AZ AST Biobank), and Cynomolgus plasma (BioIVT, #NHP00PLK2FNN, lot CYN222895). 384-Well black fluotrack PS plates (Greiner 781076) were used. 20 μL diluted plasma (Cynomolgus and Human plasma dilution 1:40, Mouse plasma dilution 1:67) in buffer (PBS, 0.1% BSA) was added to 0.6 μL compounds (in DMSO). Compounds were tested using 10 CR, 3 fold dilution series from 500 nM FAC. Two replicates for each assay point were run on the same plate. A fluorescence blank read was taken before substrate addition. […] Plates were incubated for 40 min at rt in the dark. […] IC50 values were determined by plotting % inhibition versus log compound concentration.
# [2] = target: Prolyl endopeptidase, Prolyl Oligopeptidase (hPREP) (Homo sapiens (Human), UniProt P48147); experiment: hPrep inhibition assay; type: biochemical; details: hPREP 0.6 nM, Z-Gly-Pro-amino-methylcoumarin 50 μM; read-out: PREP IC50
# Sequence of Prolyl endopeptidase, Prolyl Oligopeptidase (hPREP) (P48147 whole entry): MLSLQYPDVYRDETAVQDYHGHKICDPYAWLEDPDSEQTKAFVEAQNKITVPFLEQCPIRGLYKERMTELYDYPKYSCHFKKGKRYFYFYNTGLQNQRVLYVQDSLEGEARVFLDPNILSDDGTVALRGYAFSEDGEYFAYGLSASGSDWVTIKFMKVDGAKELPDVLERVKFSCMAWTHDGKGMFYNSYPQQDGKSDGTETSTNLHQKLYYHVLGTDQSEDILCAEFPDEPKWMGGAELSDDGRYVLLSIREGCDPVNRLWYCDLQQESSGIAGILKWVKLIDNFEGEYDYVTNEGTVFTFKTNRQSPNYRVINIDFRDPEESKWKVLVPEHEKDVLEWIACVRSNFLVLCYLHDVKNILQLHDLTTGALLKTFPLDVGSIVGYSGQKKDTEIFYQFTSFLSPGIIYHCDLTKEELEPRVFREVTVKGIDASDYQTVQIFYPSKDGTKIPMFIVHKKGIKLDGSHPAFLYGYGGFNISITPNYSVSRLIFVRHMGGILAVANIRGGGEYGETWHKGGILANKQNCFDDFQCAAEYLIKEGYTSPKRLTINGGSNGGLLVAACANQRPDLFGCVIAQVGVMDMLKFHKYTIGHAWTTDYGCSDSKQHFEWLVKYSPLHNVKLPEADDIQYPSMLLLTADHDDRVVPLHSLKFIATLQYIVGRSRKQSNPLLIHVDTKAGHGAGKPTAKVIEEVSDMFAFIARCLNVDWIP
# Summary of the method: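 Fluorogenic read-out (340 nm excitation, 460 nm emission) after 20 min at rt, using 50 μM final Z-Gly-Pro-aminomethylcoumarin and 0.6 nM final enzyme, following 15 min compound preincubation. Buffer pH 7.5 with glutathione and Triton X-100. IC50 via one-site model on % inhibition vs log concentration.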
# hFAP (M39-A757) = hFAP (M39-A757) (Homo sapiens (Human), UniProt Q12884); experiment: hFAP binding assay (surface plasmon resonance); details: SPR, 20° C.; for hFAP Binding assay k(off) / hFAP Binding assay k(on): single cycle kinetics; for Kd: n = 1 or geometric mean n = 2-4
# Sequence of hFAP (M39-A757) (Q12884 39-757): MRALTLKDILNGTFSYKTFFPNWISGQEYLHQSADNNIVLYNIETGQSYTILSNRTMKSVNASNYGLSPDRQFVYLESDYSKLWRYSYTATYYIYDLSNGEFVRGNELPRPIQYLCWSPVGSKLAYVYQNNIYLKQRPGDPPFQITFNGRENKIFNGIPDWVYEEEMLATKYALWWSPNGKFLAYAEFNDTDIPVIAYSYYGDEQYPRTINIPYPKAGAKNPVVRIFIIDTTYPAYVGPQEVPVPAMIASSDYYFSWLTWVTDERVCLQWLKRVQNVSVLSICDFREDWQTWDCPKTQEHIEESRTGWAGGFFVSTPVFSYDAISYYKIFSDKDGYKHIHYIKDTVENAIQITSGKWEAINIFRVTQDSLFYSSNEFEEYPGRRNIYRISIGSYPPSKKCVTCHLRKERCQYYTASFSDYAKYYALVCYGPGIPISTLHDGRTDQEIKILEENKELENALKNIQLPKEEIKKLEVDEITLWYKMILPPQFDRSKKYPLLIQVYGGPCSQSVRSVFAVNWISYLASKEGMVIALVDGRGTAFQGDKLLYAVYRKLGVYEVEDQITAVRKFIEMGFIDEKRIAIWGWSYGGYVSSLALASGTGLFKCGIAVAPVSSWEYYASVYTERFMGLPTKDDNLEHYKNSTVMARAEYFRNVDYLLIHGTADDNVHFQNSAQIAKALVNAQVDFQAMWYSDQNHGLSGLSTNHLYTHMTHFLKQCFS
# [3] = Metabolic stability in rat hepatocytes (rHep); details: n = 1 or geometric mean of n = 2-3
# [4] = Metabolic stability in human hepatocytes (hHep); type: in vitro ADME; details: n = 1 or geometric mean of n = 2
# [5] = Metabolic stability in human liver microsomes (HLM); details: human, HLM CLint, n = 1 or average of n = 2-3
# Experimental: Metabolic stability in HLM was measured as described in J Comput Aided Mol Des 2015, 29, 795.
# [6] = target: human Fibroblast activation protein alpha (hFAP) (Homo sapiens (Human), UniProt Q12884); experiment: hFAP inhibition assay (tight binders); type: biochemical; details: Ala-Pro-AMC 20 μM, n = 1 or geometric mean n = 2-6; also: hFAP 2.4 pM
# Sequence of human Fibroblast activation protein alpha (hFAP) (Q12884 38-760): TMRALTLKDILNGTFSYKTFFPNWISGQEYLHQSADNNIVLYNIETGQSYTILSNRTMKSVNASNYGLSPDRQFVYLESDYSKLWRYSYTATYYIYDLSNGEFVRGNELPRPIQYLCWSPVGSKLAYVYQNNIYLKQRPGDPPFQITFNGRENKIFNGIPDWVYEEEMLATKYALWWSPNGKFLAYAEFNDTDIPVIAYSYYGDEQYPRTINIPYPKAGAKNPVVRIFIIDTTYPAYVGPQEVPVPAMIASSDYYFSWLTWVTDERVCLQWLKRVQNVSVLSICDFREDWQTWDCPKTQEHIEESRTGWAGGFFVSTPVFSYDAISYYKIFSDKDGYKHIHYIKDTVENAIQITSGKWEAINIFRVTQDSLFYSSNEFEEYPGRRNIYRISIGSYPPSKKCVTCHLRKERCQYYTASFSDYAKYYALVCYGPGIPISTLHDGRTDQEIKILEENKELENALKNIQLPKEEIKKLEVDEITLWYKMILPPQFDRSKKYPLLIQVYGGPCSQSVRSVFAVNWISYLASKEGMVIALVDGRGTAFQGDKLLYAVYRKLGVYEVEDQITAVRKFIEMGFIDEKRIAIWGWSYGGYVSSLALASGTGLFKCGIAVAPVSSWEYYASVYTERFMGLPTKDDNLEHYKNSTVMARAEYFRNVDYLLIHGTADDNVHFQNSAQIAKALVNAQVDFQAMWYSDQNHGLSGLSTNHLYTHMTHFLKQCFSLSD
# Experimental: The plates were read on a PHERAstar® reader with excitation 340 nm and emission 460 nm. Data were analyzed in Genedata Screener®. IC50 values were determined by plotting % inhibition versus log compound concentration and using a one site dose response model.
# Caco-2 cell permeability = details: human
# Experimental: Caco-2 cell permeability was measured as described in Mol Pharm 2017, 14, 1601.
# FAP [7] = target: FAP (Homo sapiens (Human), UniProt Q12884); experiment: hFAP inhibition assay; type: biochemical; details: hFAP […], Ala-Pro-AMC 20 μM; n = 1 or geometric mean n = 2-3
# Sequence of FAP (Homo sapiens (Human), UniProt Q12884) (Q12884 38-760): as above
# Summary of the method: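 Compounds (10-point, 3-fold dilutions from 50 μM top) were preincubated 15 min at rt in the dark with 0.48 nM hFAP in pH 7.4 Tris/NaCl/Chaps buffer. Reaction was started with substrate (40 μM solution) and ran 30 min at rt. Read by fluorescence (340/460 nm); IC50 from one-site fit.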
# Kinetic solubility = details: kinetic from dmso stock, Solubility, kinetic solubility; n = 1 or average of n = 2-3
# Experimental: Kinetic solubility was measured as described in Comput Aided Mol Des 2015, 29, 795.
# Sequence of FAP (Mus musculus (Mouse), UniProt P97321) (P97321 24-761): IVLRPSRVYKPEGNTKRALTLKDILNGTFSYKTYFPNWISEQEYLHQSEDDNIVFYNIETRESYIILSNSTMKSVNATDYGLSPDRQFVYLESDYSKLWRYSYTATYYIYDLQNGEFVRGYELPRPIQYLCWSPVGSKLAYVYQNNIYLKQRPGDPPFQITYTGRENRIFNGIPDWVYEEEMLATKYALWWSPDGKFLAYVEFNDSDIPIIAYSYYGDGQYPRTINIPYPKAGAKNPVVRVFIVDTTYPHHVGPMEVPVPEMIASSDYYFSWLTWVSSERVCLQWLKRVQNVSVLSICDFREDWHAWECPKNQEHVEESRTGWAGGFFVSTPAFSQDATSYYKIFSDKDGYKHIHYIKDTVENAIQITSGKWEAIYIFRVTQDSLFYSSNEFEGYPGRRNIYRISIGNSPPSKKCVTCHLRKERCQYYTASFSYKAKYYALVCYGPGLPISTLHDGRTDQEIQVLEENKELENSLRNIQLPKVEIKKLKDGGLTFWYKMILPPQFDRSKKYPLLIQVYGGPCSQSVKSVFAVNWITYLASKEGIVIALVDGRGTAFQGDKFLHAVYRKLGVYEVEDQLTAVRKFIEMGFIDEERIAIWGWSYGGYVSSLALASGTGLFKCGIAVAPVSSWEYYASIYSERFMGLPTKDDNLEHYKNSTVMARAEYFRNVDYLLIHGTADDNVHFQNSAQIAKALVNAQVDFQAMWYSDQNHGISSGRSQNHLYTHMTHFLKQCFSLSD
Compound,IC50 (FAP [1]) [nM],IC50 [2] [nM],hFAP Binding assay k(off) (hFAP (M39-A757)) [s⁻¹],hFAP Binding assay k(on) (hFAP (M39-A757)) [M⁻¹ s⁻¹],rHep CLint [3] [μL/min/1E6],hHep CLint [4] [μL/min/1E6],microsomal CLint [5] [µL/min/mg],IC50 [6] [nM],Papp A→B (Caco-2 cell permeability) [×10⁻⁶ cm/s],Papp B→A (Caco-2 cell permeability) [×10⁻⁶ cm/s],efflux ratio (Caco-2 cell permeability),Kd (hFAP (M39-A757)) [nM],IC50 (FAP [7]) [nM],solubility (Kinetic solubility) [µM]
Cc1cc(N2CCOCC2)cc2c(C(=O)NCC(=O)N3CSC[C@H]3C#N)ccnc12 [Example 9],0.6,,,,,,,,,,,,,
"Cc1nn(C2CCOCC2)c(C)c1-c1ccc2nccc(C(=O)NCC(=O)N3CSC[C@H]3C#N)c2c1 [Example 172, (R)—N-(2-(4-Cyanothiazolidin-3-yl)-2-oxoethyl)-6-(3,5-dimethyl-1-(tetrahydro-2H-pyran-4-yl)-1H-pyrazol-4-yl)quinoline-4-carboxamide]",0.6,540,0.000076,2400000,,,,,,,,,,
"COC1(C)CCN(c2ccc3nccc(C(=O)NCC(=O)N4CSC[C@H]4C#N)c3c2)CC1 [Example 42, (R)—N-(2-(4-Cyanothiazolidin-3-yl)-2-oxoethyl)-6-(4-methoxy-4-methylpiperidin-1-yl)quinoline-4-carboxamide]",,880,0.000054,1800000,7.6,2.7,21,0.053,2.8,33,12,0.03,,
"N#C[C@@H]1CSCN1C(=O)CNC(=O)c1ccnc2ccc(-c3ccn[nH]3)cc12 [Example 196, (R)—N-(2-(4-Cyanothiazolidin-3-yl)-2-oxoethyl)-6-(1H-pyrazol-5-yl)-quinoline-4-carboxamide]",0.2,84,0.00026,3200000,,,,,,,,,,
"N#C[C@@H]1CSCN1C(=O)CNC(=O)c1ccnc2ccc(-c3cnc4n3CCCC4)cc12 [Example 175, (R)—N-(2-(4-Cyanothiazolidin-3-yl)-2-oxoethyl)-6-(5,6,7,8-tetrahydroimidazo[1,2-a]pyridin-3-yl)quinoline-4-carboxamide]",0.4,760,0.00012,1400000,,,,,,,,,,
"CC1(C)CCN(c2ccc3nccc(C(=O)NCC(=O)N4CSC[C@H]4C#N)c3c2)CC1 [Example 33, (R)—N-(2-(4-Cyanothiazolidin-3-yl)-2-oxoethyl)-6-(4,4-dimethylpiperidin-1-yl)quinoline-4-carboxamide]",,220,0.000052,1100000,44,,92,0.27,7.5,19,2.5,0.059,0.34,85
"Cc1noc(C)c1-c1ccc2nccc(C(=O)NCC(=O)N3CSC[C@H]3C#N)c2c1 [Example 216, (R)—N-(2-(4-Cyanothiazolidin-3-yl)-2-oxoethyl)-6-(3,5-dimethylisoxazol-4-yl)quinoline-4-carboxamide]",,190,0.0009,5200000,17,,58,1.7,0.62,40,65,0.27,2.4,710
